ChEMBL document CHEMBL1132127, “Thrombin inhibitors based on [5,5] trans-fused indane lactams” (Bioorg Med Chem Lett, 1999)
pIC50: −log10 of the molar value.

Assays:
[1] = molecular target: Coagulation factor X (Homo sapiens, UniProt P00742)
Description: Inhibition of activated Coagulation factor X

[2] = molecular target: Prothrombin (Homo sapiens, UniProt P00734)
[3] = molecular target: Serine protease 1 (Homo sapiens, UniProt P07477)
[4] = Half life time in human plasma; assay type: ADME, cell-free

Sequence of Coagulation factor X (P00742 41-179 limits assumed): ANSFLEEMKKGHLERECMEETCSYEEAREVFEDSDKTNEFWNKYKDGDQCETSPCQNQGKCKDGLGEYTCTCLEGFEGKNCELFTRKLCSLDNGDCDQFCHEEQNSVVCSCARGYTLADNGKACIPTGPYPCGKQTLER
Sequence of Coagulation factor X (P00742 235-488 limits assumed): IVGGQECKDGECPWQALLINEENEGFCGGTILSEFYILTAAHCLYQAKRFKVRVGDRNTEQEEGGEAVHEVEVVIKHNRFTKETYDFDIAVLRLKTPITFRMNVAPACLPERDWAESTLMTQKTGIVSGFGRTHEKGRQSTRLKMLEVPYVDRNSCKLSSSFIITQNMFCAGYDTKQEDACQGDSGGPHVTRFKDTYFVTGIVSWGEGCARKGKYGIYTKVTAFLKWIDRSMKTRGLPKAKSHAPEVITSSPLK
Sequence of Serine protease 1 (P07477 whole entry): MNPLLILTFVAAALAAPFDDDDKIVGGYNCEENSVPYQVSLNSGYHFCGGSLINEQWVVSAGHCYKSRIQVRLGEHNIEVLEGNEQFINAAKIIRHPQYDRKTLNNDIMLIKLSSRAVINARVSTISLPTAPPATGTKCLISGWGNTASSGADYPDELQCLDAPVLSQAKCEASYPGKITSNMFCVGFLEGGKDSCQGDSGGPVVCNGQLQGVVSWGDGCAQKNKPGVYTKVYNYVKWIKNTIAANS

SMILES | pIC50 [1] | pIC50 [2] | pIC50 [3] | half-life [4]
CCN(CC)C(=O)c1cccc(-c2ccc3c(c2)[C@@H]2[C@@H](CCCCC(=N)N)C(=O)N(CCCCCc4ccccc4)[C@H]2C3)c1 | < 4.30 | 5.30 | < 4.30 | 
N=C(N)CCCC[C@H]1C(=O)N[C@H]2Cc3ccccc3[C@@H]21 | < 3.70 | < 3.70 | < 3.70 | > 24 h
CCN(CC)C(=O)c1cccc(-c2ccc3c(c2)C[C@H]2[C@H]3[C@@H](CCCCC(=N)N)C(=O)N2C(=O)OC)c1 | 6.92 | 7.80 |  | 24 h
CCN(CC)C(=O)c1cccc(-c2ccc3c(c2)[C@@H]2[C@@H](CCCCC(=N)N)C(=O)N(C(=O)OCCCc4ccccc4)[C@H]2C3)c1 | 5.43 | 6.89 | 5.64 | 
CCN(CC)C(=O)c1cccc(-c2ccc3c(c2)[C@@H]2[C@@H](CCCCC(=N)N)C(=O)N(COC(C)=O)[C@H]2C3)c1 | 4.85 | 4.92 | 4.44 | 
CC(=O)O[C@@H]1CC[C@]2(C)C3CC[C@@]4(C)[C@H]5[C@@H](C[C@]4(C)C3=CCC2[C@]1(C)C(=O)O)OC(=O)[C@@H]5CC(=O)C=C(C)C (stereo partly drawn) |  | 5.40 |  | 
CCNC(=O)N1C(=O)[C@H](CCCCC(=N)N)[C@H]2c3cc(-c4cccc(C(=O)N(CC)CC)c4)ccc3C[C@@H]21 | < 4.00 | 5.52 | < 4.00 | 
N=C(N)CCCC[C@H]1C(=O)N(CCCCCc2ccccc2)[C@H]2Cc3ccccc3[C@H]12 | < 4.00 | 4.89 | 5.01 | 
COC(=O)CN1C(=O)[C@H](CCCCC(=N)N)[C@H]2c3ccccc3C[C@@H]21 | < 3.70 | 4.37 | < 3.70 | 
CCOP(=O)(OCC)N1C(=O)[C@H](CCCCC(=N)N)[C@H]2c3ccc(-c4cccc(C(=O)N(CC)CC)c4)cc3C[C@@H]21 | 4.70 | 5.49 | 5.77 | 
CCN(CC)C(=O)c1cccc(-c2ccc3c(c2)[C@@H]2[C@@H](CCCCC(=N)N)C(=O)N(S(=O)(=O)c4ccccc4)[C@H]2C3)c1 | 7.13 | 7.80 | 7.18 | 
CCN(CC)C(=O)c1cccc(-c2ccc3c(c2)[C@@H]2[C@@H](CCCCC(=N)N)C(=O)N(C(=O)N(C)C)[C@H]2C3)c1 | < 4.70 | 4.96 | < 4.70 | 
CCN(CC)C(=O)c1cccc(-c2ccc3c(c2)C[C@H]2[C@H]3[C@@H](CCCCC(=N)N)C(=O)N2CCCCCc2ccccc2)c1 | 4.59 | 5.30 | 5.08 | 
CCN(CC)C(=O)c1cccc(-c2ccc3c(c2)[C@@H]2[C@@H](CCCCC(=N)N)C(=O)N(C(=O)OC)[C@H]2C3)c1 | 5.66 | 7.30 | 5.66 | 17 h
CCN(CC)C(=O)c1cccc(-c2ccc3c(c2)C[C@H]2[C@H]3[C@@H](CCCCC(=N)N)C(=O)N2C(=O)OCCCc2ccccc2)c1 | 5.44 | 6.18 | 6.21 | 
CCC(=O)N1C(=O)[C@H](CCCCC(=N)N)[C@H]2c3cc(-c4cccc(C(=O)N(CC)CC)c4)ccc3C[C@@H]21 | 5.00 | 6.42 | 5.08 | 
